Measured values reported in patent US20220378773A1, “METHODS FOR TREATING LEUKEMIA AND USE OF A LEUKEMIC STEM CELL SIGNATURE TO PREDICT CLINICAL SENSITIVITY TO THERAPIES” (CELGENE CORPORATION, priority 2019, published 2022).
“And” between values parts separate entries of the source, which are not always exact repeats. Equal values may be shown once. “Also recorded” adds a separate entry of the source. Marks after values point to notes of the source that are not given here.

Key:
[1] = Tolerability and body weight of AML xenograft mice; format: in vivo, NOD/SCID mice
Experimental: Treatment and Assay Procedure: At Day 21 post AML transplantation, mice were randomly grouped and dosed with either Compound D at 2.5 mg/kg or vehicle (5% N-methyl-2-pyrrolidone [NMP]/45% polyethylene glycol [PEG] 400/50% saline), intraperitoneally twice daily in a dose volume of 50 μL for 4 weeks. All animals were euthanized at scheduled termination (1 day after the last treatment) and bone marrow was collected from the right femur (injected bone marrow) and the left femur and left and right tibia (non-injected bone marrow). Cells isolated from injected or non-injected bone marrow were analyzed by flow cytometry to assess AML engraftment, and were viably frozen for future secondary engraftment analysis.
Based on the pilot data (FIG. 4) in which one of the 2 samples responded to Compound D dosing at 2.5 mg/kg BID for 2 weeks, the duration of dosing was extended to 4 weeks to determine if the mice could tolerate longer Compound D dosing. Mice transplanted with 3 different AML samples were closely monitored for clinical conditions during treatment.

[2] = test system: leukemic stem cells (LSCs); test: Secondary xenograft limiting dilution assay (LDA); format: in vivo, NOD/SCID mice; details: for Fold reduction of LSC frequency by Compound D: relative to vehicle; for No. mice engrafted/No. mice transplanted: from Compound D-treated primary mice
Experimental: Secondary xenograft limiting dilution assay: To determine whether Compound D targeted leukemia stem cells with self-renewal ability, which are considered to contribute to leukemia progression, therapy-resistance, and relapse, secondary transplantation was performed using LDA. Limiting dilution assays are designed to define an unknown frequency of LSCs in the total leukemia graft of primary mice. LDA analysis in secondary transplantation will allow quantitative determination whether Compound D targets LSCs with self-renewal ability in primary mice. For this, multiple cell doses were used for secondary transplant to achieve both a positive response (engrafted mice at high cell doses) and a negative response (non-engrafted mice at lowest cell dose). Four different AML cell doses for each treated group (1 million, 500,000, 50,000 and 2000 cells/mouse) with 5 mice per cell dose, totally 40 mice for each AML graft sample. For any sample that was considered aggressive, LDA was performed with lower cell doses. The frequency of LSCs was analyzed using the Walter and Eliza Hall Institute (WEHI) bioinformatics extreme limiting dilution analysis (ELDA) software (bioinf.wehi.edu.au).
For secondary transplant NOD/SCID mice were sublethally irradiated (275 cGy) and pretreated with anti-CD122 antibody (200 μg/mouse) to deplete residual host natural killer cells. On the day of transplantation, viably frozen cells harvested from the vehicle- or Compound D-treated primary mice were thawed, counted, mouse-cell depleted (Mouse Cell Depletion Kit, Miltenyi Biotec, USA), and transplanted intrafemorally into the pretreated secondary mice at limiting doses described above. For secondary transplant without LDA, thawed cells were not depleted of mouse cells before transplantation. At 12 weeks post secondary transplantation, mice were euthanized, and bone marrow was collected and analyzed.
Limiting dilution assay: Limiting dilution assays were used to define the frequency of leukemia stem cells in the total leukemia graft of the primary mice. Therefore, analysis of LDA in secondary transplantation will allow quantitative determination whether Compound D targets leukemia stem cells with self-renewal ability in primary mice. For this, multiple cell doses were used for secondary transplant to achieve both a positive response (engrafted mice at high cell doses) and a negative response (non-engrafted mice at lowest cell dose). Four different AML cell doses for each treated group were used (1 million, 500,000, 50,000 and 2000 cells/mouse) with 5 mice per cell dose, totally 40 mice for each leukemia graft sample. For any sample that was considered aggressive, LDA was performed with lower cell doses. The frequency of LSCs was analyzed using the Walter and Eliza Hall Institute (WEHI) bioinformatics extreme limiting dilution analysis (ELDA) software (bioinfwehi.edu.au).
Intrafemoral transplantation: One day prior to transplantation, NOD/SCID mice were sublethally irradiated (275 cGy) and pretreated with anti-CD122 antibody (200m/mouse) to deplete residual host natural killer cells. On the day of transplantation, viably frozen cells harvested from combined vehicle- or Compound D-treated (2.5 mg/kg intraperitoneally twice daily for 14 days, Section 6.1) primary mice were thawed, counted, mouse cell depleted, and transplanted intrafemorally into the pretreated secondary mice at limiting doses in a total volume of 30 μl. For the Compound D-treated samples with low human AML engraftment 25%), cells from both RF and BM were combined and 2 rounds of mouse depletion were performed to ensure a high human AML cell purity. […] Mouse cell depletion was performed following the instructions provided by Miltenyi Biotec (Mouse Cell Depletion Kit, catalogue number 130-104-694, Miltenyi Biotec, Germany). […]

O=C1CCC(N2Cc3cc(CNC(=O)C(F)(F)c4ccc(Cl)cc4)ccc3C2=O)C(=O)N1 (stereo not shown) [Compound D, 2-(4-chlorophenyl)-N-((2-(2,6-dioxopiperidin-3-yl)-1-oxoisoindolin-5-yl)methyl)-2,2-difluoroacetamide]
tolerability ([1]; 4 weeks of treatment, mice with different primary AML samples): well tolerated
Body weight, Week 1, average (mean) ([1]; group mean): Avg = 21.8
Body weight, Week 2, average (mean) ([1]; group mean): Avg = 21.7
Body weight, Week 3, average (mean) ([1]; group mean): Avg = 21.6
Body weight, Week 1 ([1]; individual mice): 21 g (5×) and 23 g (2×) and 20 g (2×) and 22 g (4×) and 24 g (2×)
Body weight, Week 2 ([1]; individual mice): 22 g (3×) and 20 g (3×) and 24 g (2×) and 23 g (3×) and 19 g and 21 g (3×)
Body weight, Week 3 ([1]; individual mice): 23 g and 21 g (4×) and 19 g and 22 g (5×) and 24 g (2×) and 20 g (2×)
paralysis / death ([1]; mouse transplanted with Patient Sample 120860, last day of 4-week treatment): Only one Compound D-treated mouse was found paralyzed
AML engraftment in secondary mice ([2]; AML 90191, cells from Compound D primary-treated mice, about 12 weeks): no AML engraftment
leukemia graft in secondary mice vs vehicle-treated cells ([2]; AML 110500): much lower leukemia graft
LSC frequency, vehicle- vs Compound D-treated primary mice ([2]; AML 120860, non-injected BM data): no difference in LSC frequency; also recorded: no difference for LSC frequency
LSC frequency increase following treatment ([2]; AML Patient 110484): 1.6 fold
LSC frequency increase following treatment ([2]; AML Patient 120846): 1.8 fold
LSC frequency increase following treatment ([2]; AML Patient 120860): 1.3 fold
LSC frequency increase following treatment ([2]; AML Patient 130695): 12.6 fold
LSC frequency ([2]; AML Patient 130926 (responder)): did not reduce LSC frequency
LSC frequency (1/total number), Compound D ([2]; Patient 598, cells from RF of treated primary mice): 675569 1/total number
Fold reduction of LSC frequency by Compound D ([2]; Patient 598): 2.1 fold
LSC frequency (1/total number), Compound D ([2]; Patient 90191, cells from RF + BM of treated primary mice): Not engrafted
LSC frequency (1/total number), Compound D ([2]; Patient 100348, cells from RF + BM of treated primary mice): 923814 1/total number
Fold reduction of LSC frequency by Compound D ([2]; Patient 100348): 4.0 fold
LSC frequency (1/total number), Compound D ([2]; Patient 110484, cells from RF of treated primary mice): 1153831 1/total number
Fold reduction of LSC frequency by Compound D ([2]; Patient 110484, negative sign = increase): −1.6 ^a fold
LSC frequency (1/total number), Compound D ([2]; Patient 110500, cells from RF of treated primary mice): 356239 1/total number
LSC frequency (1/total number), Compound D ([2]; Patient 120791, cells from RF + BM of treated primary mice): Not engrafted
LSC frequency (1/total number), Compound D ([2]; Patient 120846, cells from RF of treated primary mice): 14523 1/total number
Fold reduction of LSC frequency by Compound D ([2]; Patient 120846, negative sign = increase): −1.8 ^a fold
LSC frequency (1/total number), Compound D ([2]; Patient 120860, cells from BM of treated primary mice): 65626 1/total number
Fold reduction of LSC frequency by Compound D ([2]; Patient 120860, negative sign = increase): −1.3 ^a fold
LSC frequency (1/total number), Compound D ([2]; Patient 120899, cells from BM of treated primary mice): 27120 1/total number
Fold reduction of LSC frequency by Compound D ([2]; Patient 120899): 4.0 fold
LSC frequency (1/total number), Compound D ([2]; Patient 121020, cells from RF+BM of treated primary mice): 7562084 1/total number
Fold reduction of LSC frequency by Compound D ([2]; Patient 121020): 1.5 fold
No. mice engrafted/No. mice transplanted ([2]; Patient 130578, 5000 cells transplanted/mouse): 0/5
No. mice engrafted/No. mice transplanted ([2]; Patient 130578, 20000 cells transplanted/mouse): 0/5
No. mice engrafted/No. mice transplanted ([2]; Patient 130578, 50000 cells transplanted/mouse): 2/5
No. mice engrafted/No. mice transplanted ([2]; Patient 130578, 120000 cells transplanted/mouse): 2/3
Fold reduction of LSC frequency by Compound D ([2]; Patient 130578): 9.4 fold
LSC frequency (1/total number), Compound D ([2]; Patient 130695, cells from RF of treated primary mice): 36696 1/total number
Fold reduction of LSC frequency by Compound D ([2]; Patient 130695, negative sign = increase): −12.6*** ^a fold
LSC frequency (1/total number), Compound D ([2]; Patient 130712, cells from BM of treated primary mice): 758064 1/total number
Fold reduction of LSC frequency by Compound D ([2]; Patient 130712): 2.7 fold
LSC frequency (1/total number), Compound D ([2]; Patient 130926, cells from RF + BM of treated primary mice): 1207241 1/total number
Fold reduction of LSC frequency by Compound D ([2]; Patient 130926): 1.0 fold
LSC frequency (1/total number), Compound D ([2]; Patient 140171, cells from RF + BM of treated primary mice): Not engrafted
responsive leukemia samples with LSCs targeted ([2]; mouse, in vivo): 6 out of 10 samples
